In US20060079453A1, “Hla binding peptides and their uses” (priority 2002, published 2006):
No end group written: not given here.

How the values were obtained:
Assay in all cases: biochemical
Assay type in all cases: binding
HLA-A*1101 = HLA-A*1101 (Homo sapiens, UniProt P04439, A114D/D185E/E176A/F33Y/L180Q/S129P/T187R)
HLA-A*6801 = HLA-A*6801 (Homo sapiens, UniProt P04439, A269V/D185E/E176V/E277Q/E87N/F33Y/G231S/I121M/I166T/I218V/L180W/L300P/L318F/N151K/P208A/P217A/Q86R/R169H/T345S)
HLA-A*0301 = HLA-A*0301 (Homo sapiens, UniProt P04439)
HLA-A*3301 = HLA-A*3301 (Homo sapiens, UniProt P04439, A270S/D185E/E176V/E277Q/E87N/F33T/G231S/H175R/I121M/I218V/I322F/K168Q/K210R/L300P/L318F/M331R/P217A/Q86R/Q94H/R138Q/T323A/T345S/T97I/V358M/Y195H)
HLA-A*3101 = HLA-A*3101 (Homo sapiens, UniProt P04439, A270S/D185E/E176V/E277Q/F33T/G231S/G80R/H175R/I121M/I218V/I322F/K168Q/L300P/L318F/M331R/P217A/Q94H/R138Q/T323A/T345S/T97I/V358M)

Sequence of HLA-A*1101 (P04439 25-365 limits assumed, stated change not applied): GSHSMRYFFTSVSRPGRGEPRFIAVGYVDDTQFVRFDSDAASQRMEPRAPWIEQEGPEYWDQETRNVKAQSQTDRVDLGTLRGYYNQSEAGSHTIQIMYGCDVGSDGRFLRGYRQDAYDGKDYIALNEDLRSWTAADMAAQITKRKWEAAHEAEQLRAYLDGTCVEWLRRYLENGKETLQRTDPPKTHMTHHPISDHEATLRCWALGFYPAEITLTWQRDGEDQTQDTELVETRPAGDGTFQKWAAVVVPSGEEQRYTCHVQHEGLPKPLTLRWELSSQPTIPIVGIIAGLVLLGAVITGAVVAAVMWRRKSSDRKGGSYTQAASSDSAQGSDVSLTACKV

STLPGPGPGRR
IC50 (HLA-A*1101): 19 nM | IC50 (HLA-A*6801): 25 nM | IC50 (HLA-A*0301): 297 nM | IC50 (HLA-A*3301): 1890 nM | IC50 (HLA-A*3101): 61 nM

SVCRSSRTR
IC50 (HLA-A*1101): 97 nM | IC50 (HLA-A*6801): 17 nM | IC50 (HLA-A*0301): 323 nM | IC50 (HLA-A*3301): 547 nM | IC50 (HLA-A*3101): 249 nM

SVYGETLER
IC50 (HLA-A*1101): 11 nM | IC50 (HLA-A*6801): 17 nM | IC50 (HLA-A*0301): 44 nM | IC50 (HLA-A*3301): 160 nM | IC50 (HLA-A*3101): 235 nM

TFLEKLTNK
IC50 (HLA-A*1101): 815 nM | IC50 (HLA-A*6801): 918 nM | IC50 (HLA-A*0301): 6840 nM | IC50 (HLA-A*3301): 148 nM | IC50 (HLA-A*3101): 451 nM

TLEQTVKK
IC50 (HLA-A*1101): 203 nM | IC50 (HLA-A*6801): 21400 nM | IC50 (HLA-A*0301): 4770 nM | IC50 (HLA-A*3301): > 75300 nM | IC50 (HLA-A*3101): > 100000 nM

TLYQIQVMKR
IC50 (HLA-A*1101): 164 nM | IC50 (HLA-A*6801): 90 nM | IC50 (HLA-A*0301): 361 nM | IC50 (HLA-A*3301): 558 nM | IC50 (HLA-A*3101): 397 nM

TSVHEIELR
IC50 (HLA-A*1101): 872 nM | IC50 (HLA-A*6801): 12 nM | IC50 (HLA-A*0301): > 64300 nM | IC50 (HLA-A*3301): 5950 nM | IC50 (HLA-A*3101): 1040 nM

TVQPGPGPGK
IC50 (HLA-A*1101): 2.5 nM | IC50 (HLA-A*6801): 28 nM | IC50 (HLA-A*0301): 41 nM | IC50 (HLA-A*3301): 68600 nM | IC50 (HLA-A*3101): 1340 nM

VFADLRIVYK
IC50 (HLA-A*1101): 127 nM | IC50 (HLA-A*6801): 273 nM | IC50 (HLA-A*0301): 2090 nM | IC50 (HLA-A*3301): 200 nM | IC50 (HLA-A*3101): 402 nM

VSHAQLPAK
IC50 (HLA-A*1101): 9.5 nM | IC50 (HLA-A*6801): 13500 nM | IC50 (HLA-A*0301): 378 nM | IC50 (HLA-A*3301): 1400 nM | IC50 (HLA-A*3101): 46 nM

VSIRVGGQIK
IC50 (HLA-A*1101): 91 nM | IC50 (HLA-A*6801): 1960 nM | IC50 (HLA-A*0301): 642 nM | IC50 (HLA-A*3301): > 61700 nM | IC50 (HLA-A*3101): 50700 nM

VSIRVGGQTK
IC50 (HLA-A*1101): 21 nM | IC50 (HLA-A*6801): 290 nM | IC50 (HLA-A*0301): 341 nM | IC50 (HLA-A*3301): 39000 nM | IC50 (HLA-A*3101): 29900 nM

VTIKIEGQLK
IC50 (HLA-A*1101): 69 nM | IC50 (HLA-A*6801): 27 nM | IC50 (HLA-A*0301): 361 nM | IC50 (HLA-A*3301): 58000 nM | IC50 (HLA-A*3101): 5080 nM

VTIKVGGQLK
IC50 (HLA-A*1101): 59 nM | IC50 (HLA-A*6801): 127 nM | IC50 (HLA-A*0301): 188 nM | IC50 (HLA-A*3301): 47600 nM | IC50 (HLA-A*3101): 6060 nM

VTIRIGGQLK
IC50 (HLA-A*1101): 14 nM | IC50 (HLA-A*6801): 25 nM | IC50 (HLA-A*0301): 51 nM | IC50 (HLA-A*3301): 65800 nM | IC50 (HLA-A*3101): 4460 nM

VTIRVGGQLK
IC50 (HLA-A*1101): 13 nM | IC50 (HLA-A*6801): 28 nM | IC50 (HLA-A*0301): 43 nM | IC50 (HLA-A*3301): 86100 nM | IC50 (HLA-A*3101): 3590 nM

VTLDIQSTK
IC50 (HLA-A*1101): 13 nM | IC50 (HLA-A*6801): 237 nM | IC50 (HLA-A*0301): 78 nM | IC50 (HLA-A*3301): 1950 nM | IC50 (HLA-A*3101): 2050 nM

VTVRIGGMQK
IC50 (HLA-A*1101): 13 nM | IC50 (HLA-A*6801): 155 nM | IC50 (HLA-A*0301): 54 nM | IC50 (HLA-A*3301): 44400 nM | IC50 (HLA-A*3101): 2580 nM

VTVRVGGQLK
IC50 (HLA-A*1101): 19 nM | IC50 (HLA-A*6801): 141 nM | IC50 (HLA-A*0301): 216 nM | IC50 (HLA-A*3301): > 72300 nM | IC50 (HLA-A*3101): 8240 nM

VTVYGPGPGWK
IC50 (HLA-A*1101): 18 nM | IC50 (HLA-A*6801): 206 nM | IC50 (HLA-A*0301): 1150 nM | IC50 (HLA-A*3301): > 103000 nM | IC50 (HLA-A*3101): > 9000 nM

VTVYYGPGPGK
IC50 (HLA-A*1101): 24 nM | IC50 (HLA-A*6801): 30 nM | IC50 (HLA-A*0301): 310 nM | IC50 (HLA-A*3301): 102000 nM | IC50 (HLA-A*3101): 9720 nM

YLFNQHIKK
IC50 (HLA-A*1101): 7.8 nM | IC50 (HLA-A*6801): 14 nM | IC50 (HLA-A*0301): 14 nM | IC50 (HLA-A*3301): 7970 nM | IC50 (HLA-A*3101): 4920 nM

YSVYGTTLER
IC50 (HLA-A*1101): 96 nM | IC50 (HLA-A*6801): 19 nM | IC50 (HLA-A*0301): 430 nM | IC50 (HLA-A*3301): 6900 nM | IC50 (HLA-A*3101): 2140 nM

YTFVFADLR
IC50 (HLA-A*1101): 8.1 nM | IC50 (HLA-A*6801): 2.9 nM | IC50 (HLA-A*0301): 3630 nM | IC50 (HLA-A*3301): 6.6 nM | IC50 (HLA-A*3101): 20 nM
